Measurements as given in patent publication US6646008B1, “Treatment of disease states which result from neoplastic cell proliferation using PPAR-γ activators and compositions useful therefor” (The Salk Institute for Biological Studies, priority 1996, dated 2003).

Experiments:
HL-60 leukemia cells = test: CD14 differentiation antigen flow cytometry in HL-60 cells; type: cell-based; settings: 5 days, 10 nM AM580, 100 nM LG268, 3 μM 15-deoxy-Δ12,14-prostaglandin-J2
Protocol: (§1) HL-60 and THP-1 leukemia cells were seeded at a ensity of 2×10^5 cells/ml and cultured in RPMI containing 10% charcoal-stripped fetal calf serum. Cells were treated with either vehicle alone, or 10 nM AM580, 100 nM LG268, or 3 μM 15-deoxy-Δ12,14-prostaglandin-J2. After 5 days, cells were incubated with monoclonal antibody to the monocyte-specific differentiation antigen CD14, and analyzed by flow cytometry using a Becton Dickinson FACScan.

HL-60 cells [1] = test: Growth of HL-60 cells in the presence of ligands; type: cell-based; settings: 100 nM 9-cis RA, 100 nM LG268, 3 μM PG-J2, cell numbers after 3, 5 or 7 days
Protocol: (§2) HL-60 cells were plated at a density of 2×10^5 cells/ml and were treated with:
(§3) 100 nM 9-cis retinoic acid (9-cis RA; which is both RAR and RXR active),
(§4) 100 nM LG268 (which is RXR selective),
(§5) 3 μM prostaglandin J2 (PG-J2; which is PPARγ active), or
(§6) a combination of 100 nM of LG268 and 3 μM of PG-J2.
Cell numbers were determined after 3, 5 or 7 days of culture, as illustrated in FIG. 1.

HL-60 cells [2] = test: Cell cycle analysis of HL-60 cells by flow cytometry (DNA content); type: cell-based; settings: for Cell Cycle Phase, % G1 / Cell Cycle Phase, % G2 / Cell Cycle Phase, % S: day 3, 100 nM 9-cis RA, 100 nM LG268, 3 μM PG-J2
Protocol: as §2, §3, §4, §5, §6
Cell cycle analysis was carried out on day 3 using standard DNA content determination by flow cytometry.

NIH-vector cells = test: Adipocyte differentiation (oil red O lipid staining) of NIH-vector cells; type: cell-based; settings: for % lipid containing cells: NIH (vector) cells, treated 7 days at confluence, 1 μM pioglitazone, 50 nM LG268, or 5 μM thiazolidinedione and 50 nM LG268, oil red O after four more days, range over three experiments
Protocol: Simultaneous exposure of competent cells to both PPARγ and RXR-specific ligand was investigated to determine if such combination might provide a stronger adipogenic signal than a PPARγ ligand alone. […] It has previously been shown that wild-type NIH-3T3 cells express RXRα but not PPARγ. NIH-vector and NIH-PPARγ cells were cultured as described in the Examples. […] After an additional four days of culture, cells were fixed and stained with oil red O. Data are presented in Table 1 as the range of morphologically recognizable differentiation observed for each line over three separate experiments.

NIH-PPARγ cells = test: Adipocyte differentiation (oil red O lipid staining) of NIH-3T3 fibroblasts expressing PPARγ from a retroviral vector; type: cell-based; settings: for % lipid containing cells: NIH-PPARγ cells, treated 7 days at confluence, 1 μM pioglitazone, 50 nM LG268, or 5 μM thiazolidinedione and 50 nM LG268, oil red O after four more days, range over three experiments
Protocol: Simultaneous exposure of competent cells to both PPARγ and RXR-specific ligand was investigated to determine if such combination might provide a stronger adipogenic signal than a PPARγ ligand alone. […] NIH-vector and NIH-PPARγ cells were cultured as described in the Examples.

LS857 cells = test: Differentiation of primary liposarcoma cell strain LS857 (lipid accumulation, morphology); type: cell-based, human; settings: 7 days
THP-1 leukemia cells = test: CD14 differentiation antigen flow cytometry in THP-1 cells; type: cell-based; settings: 5 days, 100 nM LG268, 3 μM 15-deoxy-Δ12,14-prostaglandin-J2
Protocol: as §1

LS175 cells = test: Differentiation of primary liposarcoma cell strain LS175; type: cell-based, human; settings: 10 μM pioglitazone, 7 days
Protocol: Liposarcomas have presumably acquired one or more genetic defects that interfere with the course of normal adipocyte development. The observation that PPARγ is expressed consistently in these tumors raised the possibility that the malignant cells might be forced to complete the differentiation program by maximally iactivating the PPARγ pathway. To address this possibility, primary cells isolated from three human liposarcomas were cultured in vitro. Primary cell strains LS857 and LS175 were derived from well differentiated liposarcomas and LS707 was derived from an intermediate grade myxoid/round cell liposarcoma (see Table 5). High grade pleomorphic liposarcoma cells could not be expanded to sufficient numbers to permit studies of differentiation. A primary leiomyosarcoma cell line LM203 was cultured as a control. To confirm that these cultures consisted of malignant tumor-derived cells, cytogenetic analysis was performed.
When cultured in the presence of fetal bovine serum and insulin, conditions permissive for adipocyte differentiation, all three cell lines maintain a fibroblastic morphology. LS175 cells contained small amounts of stainable lipid under these conditions. […] The degree of morphologically recognizable differentiation varied from 40% in the LS857 cells to 75% in the LS175 cells. […]

| Compound | median fluorescence (CD14) (HL-60 leukemia cells) | effect on cell growth (HL-60 cells [1]) | effect on cell cycle progression (HL-60 cells [2]; day 3) | Cell Cycle Phase, % G1 (HL-60 cells [2]) [%] | Cell Cycle Phase, % G2 (HL-60 cells [2]) [%] | Cell Cycle Phase, % S (HL-60 cells [2]) [%] | % lipid containing cells (NIH-vector cells) [%] | adipogenic effect (NIH-vector cells; NIH-vector cells) | % lipid containing cells (NIH-PPARγ cells) | adipocyte differentiation (NIH-PPARγ cells; confluent NIH-PPARγ cells, 7 days, 50 nM LG268 and/or 1 μM pioglitazone) | adipocyte differentiation (LS857 cells; 50 nM LG268, 10 μM pioglitazone) | lipid accumulation, oil red O, macroscopic view (LS857 cells; 5 μM thiazolidinedione (BRL 49653 or pioglitazone), 50 nM LG268, stained after four more days) | median fluorescence (CD14) (THP-1 leukemia cells) | degree of morphologically recognizable differentiation (LS857 cells; 10 μM pioglitazone) [%] | degree of morphologically recognizable differentiation (LS175 cells) [%] |
| --- | --- | --- | --- | --- | --- | --- | --- | --- | --- | --- | --- | --- | --- | --- | --- |
| AM580 | 26 |  |  |  |  |  |  |  |  |  |  |  |  |  |  |
| CC1=C(/C=C/C(C)=C\C=C\C(C)=C\C(=O)O)C(C)(C)CCC1 [9-cis RA, 9-cis retinoic acid] |  | inhibit cell growth | inhibits cell cycle progression | 70.5 | 10.2 | 19.2 |  |  |  |  |  |  |  |  |  |
| Cc1cc2c(cc1C1(c3ccc(C(=O)O)cn3)CC1)C(C)(C)CCC2(C)C [LG268, 6-[1-(3,5,5,8,8-pentamethyl-5,6,7,8-tetrahydronaphthalen-2-yl)cyclopropyl]nicotinic acid] | 138 | only a marginal ability to promote cell differentiation |  | 54.5 | 14.4 | 31.1 | 0 | no effect | 50-65% | significant stimulation of adipocyte differentiation | significant degree of adipocyte differentiation | significant lipid accumulation | 18 |  |  |
| CCc1ccc(CCOc2ccc(CC3SC(=O)NC3=O)cc2)nc1 (stereo not shown) [pioglitazone] |  |  |  |  |  |  | 0 |  | 60-70% |  |  |  |  | 40 | 75 |
